Test system: moderate-to-severe chronic spontaneous urticaria (CSU)
Experiment: Phase 2 CSU study: itch severity score over 7 days (ISS7)
Type: in vivo, human
From the text: The study comprises a 12 week, randomized, double-blind, placebo-controlled, multi-center, dose-ranging efficacy and safety phase, followed by a 40 week open label extension (OLE) phase (see FIG. 1). The study consists of three phases and an optional OLE phase. […] Clinically, CSU is characterized by the spontaneous and recurrent appearance of pruritic hives. The proposed primary endpoints were the UAS7 at Week 12 in EU and EU reference countries and the ISS7 in the US. Regardless of where a participant was from, all assessments were the same. The UAS7 score is a composite score containing both the HSS7 and the ISS7. This allowed a global assessment of the two key components of urticaria: hives and itch. […] The UAS is a validated PRO measure. […] The daily UAS scores range from 0 to 6 point/day. […] Patients were to complete the UAS using the e-diary. […] The following secondary endpoints were to be analyzed using the same approach as for the primary endpoint: • Change from baseline in UAS7 at Week 4 • Change from baseline in UAS7 at Week 12 (for US and US reference countries) • Change from baseline in ISS7 at Week 12 (except US and US reference countries) • Change from baseline in HSS7 at Week 12

[1] = Week 10, 400 mg QPM, Omalizumab-Naïve
[2] = Week 10, 400 mg QPM, Prior Omalizumab Use
[3] = Week 10, 400 mg TID, Omalizumab-Naïve
[4] = Week 10, 400 mg TID, Prior Omalizumab Use
[5] = Week 11, 400 mg BID, Omalizumab-Naïve
[6] = Week 11, 400 mg BID, Prior Omalizumab Use
[7] = Week 11, 400 mg QPM, Omalizumab-Naïve
[8] = Week 11, 400 mg QPM, Prior Omalizumab Use
[9] = Week 11, 400 mg TID, Omalizumab-Naïve
[10] = Week 11, 400 mg TID, Prior Omalizumab Use
[11] = Week 12, 400 mg BID, Omalizumab-Naïve
[12] = Week 12, 400 mg BID, Prior Omalizumab Use
[13] = Week 12, 400 mg QPM, Omalizumab-Naïve
[14] = Week 12, 400 mg QPM, Prior Omalizumab Use
[15] = Week 12, 400 mg TID, Omalizumab-Naïve
[16] = Week 12, 400 mg TID, Prior Omalizumab Use

SMILES: CC(C)(C=C(C#N)C(=O)N1CCC[C@@H](n2nc(-c3ccc(Oc4ccccc4)cc3F)c3c(N)ncnc32)C1)N1CCN(C2COC2)CC1 [rilzabrutinib, (R)-2-[3-[4-amino-3-(2-fluoro-4-phenoxy-phenyl)pyrazolo[3,4-d]pyrimidin-1-yl]piperidine-1-carbonyl]-4-methyl-4-[4-(oxetan-3-yl)piperazin-1-yl]pent-2-enenitrile]
- ISS7 Change from baseline Median [1]: −6.00
- ISS7 Mean (SD) [1]: 10.43 (5.30)
- ISS7 Median [1]: 9.50
- ISS7 Percent change from baseline Mean (SD) [1]: −37.25 (29.62) %
- ISS7 Percent change from baseline Median [1]: −39.23%
- ISS7 Change from baseline Mean (SD) [2]: −13.00 (NC)
- ISS7 Change from baseline Median [2]: −13.00
- ISS7 Mean (SD) [2]: 8.00 (NC)
- ISS7 Median [2]: 8.00
- ISS7 Percent change from baseline Mean (SD) [2]: −61.90 (NC) %
- ISS7 Percent change from baseline Median [2]: −61.90%
- ISS7 Change from baseline Mean (SD) [3]: −9.55 (5.37)
- ISS7 Change from baseline Median [3]: −10.00
- ISS7 Mean (SD) [3]: 6.75 (5.25)
- ISS7 Median [3]: 7.00
- ISS7 Percent change from baseline Mean (SD) [3]: −58.27 (30.87) %
- ISS7 Percent change from baseline Median [3]: −57.19%
- ISS7 Change from baseline Mean (SD) [4]: −12.17 (8.26)
- ISS7 Change from baseline Median [4]: −13.00
- ISS7 Mean (SD) [4]: 4.83 (6.85)
- ISS7 Median [4]: 3.00
- ISS7 Percent change from baseline Mean (SD) [4]: −68.55 (36.38) %
- ISS7 Percent change from baseline Median [4]: −79.76%
- ISS7 Change from baseline Mean (SD) [5]: −7.51 (6.18)
- ISS7 Change from baseline Median [5]: −8.00
- ISS7 Mean (SD) [5]: 7.93 (6.94)
- ISS7 Median [5]: 7.00
- ISS7 Percent change from baseline Mean (SD) [5]: −49.75 (40.18) %
- ISS7 Percent change from baseline Median [5]: −57.14%
- ISS7 Change from baseline Mean (SD) [6]: −10.43 (9.36)
- ISS7 Change from baseline Median [6]: −13.00
- ISS7 Mean (SD) [6]: 6.77 (8.14)
- ISS7 Median [6]: 2.00
- ISS7 Percent change from baseline Mean (SD) [6]: −58.05 (49.51) %
- ISS7 Percent change from baseline Median [6]: −86.67%
- ISS7 Change from baseline Mean (SD) [7]: −6.07 (4.83)
- ISS7 Change from baseline Median [7]: −6.00
- ISS7 Mean (SD) [7]: 11.03 (5.55)
- ISS7 Percent change from baseline Mean (SD) [7]: −36.12 (28.12) %
- ISS7 Percent change from baseline Median [7]: −30.00%
- ISS7 Change from baseline Mean (SD) [8]: −12.00 (NC)
- ISS7 Change from baseline Median [8]: −12.00
- ISS7 Mean (SD) [8]: 9.00 (NC)
- ISS7 Median [8]: 9.00
- ISS7 Percent change from baseline Mean (SD) [8]: −57.14 (NC) %
- ISS7 Percent change from baseline Median [8]: −57.14%
- ISS7 Change from baseline Mean (SD) [9]: −9.23 (5.92)
- ISS7 Change from baseline Median [9]: −9.00
- ISS7 Mean (SD) [9]: 6.99 (5.53)
- ISS7 Median [9]: 7.00
- ISS7 Percent change from baseline Mean (SD) [9]: −56.08 (33.60) %
- ISS7 Percent change from baseline Median [9]: −60.00%
- ISS7 Change from baseline Mean (SD) [10]: −12.58 (8.36)
- ISS7 Change from baseline Median [10]: −13.75
- ISS7 Mean (SD) [10]: 4.42 (6.99)
- ISS7 Median [10]: 1.75
- ISS7 Percent change from baseline Mean (SD) [10]: −71.13 (37.09) %
- ISS7 Percent change from baseline Median [10]: −87.50%
- ISS7 Change from baseline Mean (SD) [11]: −7.40 (6.12)
- ISS7 Change from baseline Median [11]: −7.00
- ISS7 Mean (SD) [11]: 8.09 (6.95)
- ISS7 Median [11]: 7.00
- ISS7 Percent change from baseline Mean (SD) [11]: −49.06 (38.85) %
- ISS7 Percent change from baseline Median [11]: −45.00%
- ISS7 Change from baseline Mean (SD) [12]: −13.50 (9.33)
- ISS7 Change from baseline Median [12]: −16.50
- ISS7 Mean (SD) [12]: 4.50 (9.00)
- ISS7 Median [12]: 0.00
- ISS7 Percent change from baseline Mean (SD) [12]: −75.00 (50.00) %
- ISS7 Percent change from baseline Median [12]: −100.00%
- ISS7 Change from baseline Mean (SD) [13]: −5.69 (4.72)
- ISS7 Change from baseline Median [13]: −5.33
- ISS7 Median [13]: 11.60
- ISS7 Percent change from baseline Mean (SD) [13]: −33.81 (26.94) %
- ISS7 Percent change from baseline Median [13]: −32.64%
- ISS7 Change from baseline Mean (SD) [14]: −14.00 (NC)
- ISS7 Change from baseline Median [14]: −14.00
- ISS7 Mean (SD) [14]: 7.00 (NC)
- ISS7 Median [14]: 7.00
- ISS7 Change from baseline Mean (SD) [15]: −10.27 (6.02)
- ISS7 Change from baseline Median [15]: −10.33
- ISS7 Mean (SD) [15]: 5.77 (5.26)
- ISS7 Median [15]: 7.00
- ISS7 Percent change from baseline Mean (SD) [15]: −62.66 (31.72) %
- ISS7 Percent change from baseline Median [15]: −57.19%
- ISS7 Change from baseline Mean (SD) [16]: −13.00 (9.27)
- ISS7 Change from baseline Median [16]: −17.00
- ISS7 Mean (SD) [16]: 4.60 (7.80)
- ISS7 Median [16]: 0.00
- ISS7 Percent change from baseline Mean (SD) [16]: −70.36 (41.41) %
- ISS7 Percent change from baseline Median [16]: −100.00%

Source: patent publication US20260256792A1, “TREATMENT OF CHRONIC SPONTANEOUS URTICARIA BY ADMINISTERING (R)-2-[3-[4-AMINO-3-(2-FLUORO-4-PHENOXY-PHENYL)PYRAZOLO[3,4-D]PYRIMIDIN-1-YL]PIPERIDINE-1-CARBONYL]-4-METHYL-4-[4-(OXETAN-3-YL)PIPERAZIN-1-YL]PENT-2-ENENITRILE” (priority 2023, published 2026)
